Assay results taken from PMC4890880 (ACS infectious diseases, 2016).
Where two headings read alike, the source gives them in different places.

What was measured:
HepG2-A16-CD81EGFP cells [1] = test: cells; conditions: Homo sapiens, HepG2, read-out: % inhibition
HepG2-A16-CD81EGFP cells [2] = test: cells; conditions: Homo sapiens, HepG2, read-out: % inhibition; remark: listed apart in the source
[3] = test system: Plasmodium berghei (Pb-Luc) exoerythrocytic-stage parasites; test: microbe, parasite or virus in culture
HepG2-A16-CD81EGFP cells [4] = test system: HepG2-A16-CD81EGFP cells
[5] = read-out: Inhibition% @ 50 uM rep1
[6] = read-out: Inhibition% @ 50 uM rep2

Structure (SMILES) | inhibition at 50 µM (HepG2-A16-CD81EGFP cells [1]) [%] | inhibition at 50 µM (HepG2-A16-CD81EGFP cells [2]) [%] | inhibition at 50 µM [3, 5] [%] | inhibition at 50 µM [3, 6] [%] | HepG2 Tox% @ 50 uM rep2 (HepG2-A16-CD81EGFP cells [4]; human, 50 uM) [%] | HepG2 Tox% @ 50 uM rep1 (HepG2-A16-CD81EGFP cells [4]; human, 50 uM) [%] | HepG2 Tox% @ 50 uM rep1 (HepG2-A16-CD81EGFP cells [4]; HepG2, 50 uM, replicate 1) [%] | HepG2 Tox% @ 50 uM rep2 (HepG2-A16-CD81EGFP cells [4]; HepG2, 50 uM, replicate 2) [%]
CN(C)CCCNc1c2ccccc2nc2ccccc12 [MMV000448] | 99.5 | 96.8 | 103 | 106 | 100 |  |  | 
CCCN(CCC)CCCNC(=O)c1cc2c(-c3ccc(OC)c(OC)c3)nn(C)c2s1 [MMV000561] | 100 | 98.1 | 104 | 106 | 100 |  |  | 
CCCN(CCC)CC(O)COc1ccccc1C(=O)Nc1ccccc1 (stereo not drawn) [MMV006455] | 7.57 | -8.15 | 84 | 75 |  | -8 |  | 
Cc1cc(N2CCN(C3CCCC3)CC2)n2c(nc3ccccc32)c1C#N [MMV006706] | -11.2 | -9.81 | 48 | 24 | -11 | -10 |  | 
COc1cc2cc(C(=O)Nc3ccccc3)c(N)nc2cc1OC [MMV006767] | 10.2 | 18.2 | 73 | 39 | 10 |  |  | 
CN1CCN(c2c3c(c(C#N)c4nc5ccccc5n24)CCC3)CC1 [MMV008127] | -9.23 | -6.02 | 28 | -16 | -9 |  |  | 
Cc1cc(C)cc(Nc2cc(C)nc3nc(C(F)(F)F)nn23)c1 [MMV011259] | 54.7 | 29.5 | 100 | 99 |  | 30 |  | 
CCOC(=O)C1CCN(C(=O)CN2C(=O)c3ccccc3C2c2c[nH]c3ccccc23)CC1 (stereo not drawn) [MMV011576] | -12.2 | -18.5 | 41 | 58 | -12 | -19 |  | 
CCN1CCN(c2cc(C)c3cc(NC(=O)c4ccc(OC)c(OC)c4)ccc3n2)CC1 [MMV019074] | 100 | 98.4 | 104 | 104 | 100 |  |  | 
Cc1cc(NC(=O)c2cccc(C(F)(F)F)c2)n(-c2nc(-c3ccc4c(c3)OCO4)cs2)n1 [MMV396681] | -14.2 | -14.6 | 1.11 | -36 | -14 | -15 |  | 
COc1cccc(C2(C)Nc3ccccc3-c3nc4ccccc4n32)c1 (stereo not drawn) [MMV396719] | 99.7 | 97 | 104 | 106 | 100 |  |  | 
COc1ccc(C(=O)Nc2ccc(Cl)cc2C(=O)Nc2ccncc2)cc1 [MMV665799] | -10.4 | -8.2 | 67 | 39 | -10 | -8 |  | 
CCOC(=O)c1c(NC(=O)c2ccccc2)sc2c(O)c(CN(CC)CC)ccc12 [MMV665831] | 34.3 | 26.5 | 96 | 70 |  | 27 |  | 
CCCc1cc(O)c2c3c(c(=O)oc2c1)CN(C)CC3 [MMV665841] | 26.3 | 10.6 | 83 | 44 |  |  | 11 | 26
COc1ccc(-c2nonc2NC(=O)c2cccc(C)c2)cc1OC [MMV665890] | -2.92 | -1.53 | 7 | 13 | -3 |  |  | 
O=C(Nc1ccccc1O)c1ccc(-c2ccc(Cl)cc2Cl)o1 [MMV665948] | -7.03 | 15.3 | 8 | -61 |  | 15 |  | 

Structure (SMILES) | inhibition at 50 µM (HepG2-A16-CD81EGFP cells [1]) [%] | inhibition at 50 µM (HepG2-A16-CD81EGFP cells [2]) [%] | inhibition at 50 µM [3, 5] [%] | inhibition at 50 µM [3, 6] [%] | HepG2 Tox% @ 50 uM rep2 (HepG2-A16-CD81EGFP cells [4]; human, 50 uM) [%] | HepG2 Tox% @ 50 uM rep1 (HepG2-A16-CD81EGFP cells [4]; human, 50 uM) [%] | HepG2 Tox% @ 50 uM rep1 (HepG2-A16-CD81EGFP cells [4]; HepG2, 50 uM, replicate 1) [%] | HepG2 Tox% @ 50 uM rep2 (HepG2-A16-CD81EGFP cells [4]; HepG2, 50 uM, replicate 2) [%]
CCN(CC)CCCNc1nc(-c2ccc(Cl)cc2)nc2ccccc12 [MMV665961] | 87.3 | 95 | 101 | 103 |  |  |  | 
CN1c2ccccc2N(C)C1c1ccc2c(c1)OCO2 [MMV666009] | 81 | 81.6 | 102 | 105 |  |  |  | 
O=C(Nc1ccc(Cl)cc1C(=O)Nc1ccncc1)c1ccc(Cl)cc1Cl [MMV666057] | 94.5 | 78.3 | 101 | 102 |  |  |  | 
COc1cccc(O)c1CN1CCC2(CCCN(Cc3ccc(F)cc3)C2)C1 (stereo not drawn) [MMV666061] | 98.8 | 96.5 | 103 | 103 |  |  |  | 
Cc1ccc(CN2CCC(C(=O)Nc3ccc(-c4cc5ccccc5[nH]4)cc3)CC2)o1 [MMV666071] | 43.9 | 42.7 | 98 | 96 |  |  |  | 
COc1ccc(C2N(C)c3ccccc3N2C)cc1 [MMV666075] | 84.3 | 76.8 | 101 | 98 |  |  |  | 
CCCC(c1nnnn1C1CCCCC1)N1CCN(C(=O)c2ccco2)CC1 (stereo not drawn) [MMV666093] | -2.45 | -5.78 | 52 | 19 |  | -6 |  | 
CN(C)c1ccc(-c2nc3cc(N)ccc3[nH]2)cc1 [MMV666102] | 32.6 | 29.4 | 97 | 94 |  | 29 |  | 
CCn1c(SCC(=O)Nc2cc(C(F)(F)F)ccc2Cl)nc2ccccc2c1=O [MMV666103] | -0.573 | -3.72 | 69 | 87 |  |  |  | 
O=C(CCc1ccco1)NC1CCN(CC2(c3ccc(Cl)cc3)CCC2)CC1 [MMV666108] | 67.1 | 54.1 | 101 | 102 |  |  |  | 
Oc1ccccc1CN1CCC2(CCCN(Cc3ccccc3F)C2)C1 (stereo not drawn) [MMV666116] | 85.7 | 73.5 | 98 | 100 |  |  |  | 
CSC1=NC(=Nc2c(C)cccc2C)C2(CCC(C(C)(C)C)CC2)N1c1ccc(Cl)cc1 (stereo not drawn) [MMV666596] | 89.2 | 88.7 | 104 | 106 |  |  |  | 
CCOC(=O)c1c(C)n(-c2ccc(Cl)cc2)c2ccc(OC(=O)C=Cc3ccccc3)cc12 [MMV666600] | 68.1 | 70.5 | 104 | 104 |  |  |  | 
CCOC(=O)C1=C(c2ccccc2)N=c2sc(=Cc3cc(C)n(-c4ccc(F)cc4)c3C)c(=O)n2C1c1cccc(OC)c1OC (stereo not drawn) [MMV666601] | 8.55 | -7.05 | 84 | 87 |  |  |  | 
COc1ccc(C=C2SC(=N)N(c3ccccc3OC)C2=O)cc1 [MMV666691] | 98.5 | 94.9 | 103 | 104 |  |  |  | 
